Experimental data taken from patent US20180010132A1, “INHIBITION OF PRMT5 TO TREAT MTAP-DEFICIENCY-RELATED DISEASES” (NOVARTIS AG, priority 2014, published 2018).

Tests used:
[1] = molecular target: PRMT5 (Homo sapiens, UniProt O14744); conditions: methylating the substrate E2-F-1; cited from earlier work
[2] = molecular target: PRMT5/MEP50 complex (Homo sapiens, UniProt O14744); experiment: LC/MS based biochemical histone methyltransferase assay
Method: Top: Schematic representation of multi-allele dual-selection assay with P2A or STOP insertion cassettes and crystal violet staining of cells. […] Profiling of the inhibitory activity (IC50) of adenosine and MTA across a panel of histone methyltransferases (HMTs) in an LC/MS based biochemical assay. MTA and adenosine display single digit μM activity against the PRMT5/MEP50 complex (red) but have no activity (IC50>100 μM) across all other HMTs tested. […] MIAPaCa2 cells stably expressing inducible shPRMT5-2 were transduced with pRetro empty vector control or with MTAP cDNA and proliferation assessed by confluence measurements using Incucyte. […] FIGS. 3 K and L show in vitro proliferation assay of PK1 MTAP isogenic cell lines generated from a non-targeting control sgRNA FIG. 3 K, PK1 CTRL; or with a sgRNA targeting MTAP 1, PK1 MTAP KO and stably expressing Dox-inducible PRMT5 (shPRMT5-2) with and without treatment with doxycycline (+/−Dox) over time (hours) as assessed by incucyte (n=24 per treatment condition). […] FIGS. 3 M and N show focus formation of PK1 (FIG. 3M), wild type (WT) and (FIG. 3N), MTAP knockout (MTAP KO) cells treated with DMSO or MTA at concentrations as indicated.

Chain of PRMT5/MEP50 complex (O14744 whole entry): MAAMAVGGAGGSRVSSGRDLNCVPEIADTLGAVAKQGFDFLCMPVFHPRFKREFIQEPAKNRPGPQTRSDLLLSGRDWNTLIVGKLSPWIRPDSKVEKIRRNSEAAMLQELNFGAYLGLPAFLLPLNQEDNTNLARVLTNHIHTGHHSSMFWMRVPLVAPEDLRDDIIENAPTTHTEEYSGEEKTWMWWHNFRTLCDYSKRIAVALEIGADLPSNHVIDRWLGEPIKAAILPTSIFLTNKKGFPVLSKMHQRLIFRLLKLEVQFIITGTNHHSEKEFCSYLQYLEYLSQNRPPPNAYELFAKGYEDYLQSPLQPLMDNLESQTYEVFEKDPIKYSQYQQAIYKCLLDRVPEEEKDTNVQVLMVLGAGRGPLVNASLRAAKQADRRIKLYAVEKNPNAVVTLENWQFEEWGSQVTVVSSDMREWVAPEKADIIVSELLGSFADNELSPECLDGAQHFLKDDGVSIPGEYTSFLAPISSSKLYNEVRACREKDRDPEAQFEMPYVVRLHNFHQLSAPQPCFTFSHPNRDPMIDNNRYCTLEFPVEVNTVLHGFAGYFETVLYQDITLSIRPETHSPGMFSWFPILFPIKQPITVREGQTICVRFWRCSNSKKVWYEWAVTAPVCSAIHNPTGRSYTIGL
Chain of PRMT5/MEP50 complex (Q9BQA1 whole entry partner): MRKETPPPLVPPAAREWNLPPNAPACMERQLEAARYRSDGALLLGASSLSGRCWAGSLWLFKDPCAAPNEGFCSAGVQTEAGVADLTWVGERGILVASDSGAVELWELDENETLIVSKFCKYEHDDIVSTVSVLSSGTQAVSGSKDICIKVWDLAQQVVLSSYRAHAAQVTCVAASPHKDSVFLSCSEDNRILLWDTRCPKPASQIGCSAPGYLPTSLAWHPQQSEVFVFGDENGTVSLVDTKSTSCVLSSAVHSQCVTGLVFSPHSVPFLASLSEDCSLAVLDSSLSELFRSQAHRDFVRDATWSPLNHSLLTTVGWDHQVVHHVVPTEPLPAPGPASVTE
Chain of PRMT5 (O14744 whole entry): as the sequence (O14744 whole entry) above
Chain of PRMT5 (Q9BQA1 whole entry partner): as the sequence (Q9BQA1 whole entry partner) above

Row | SMILES | PRMT5 activity [1] | inhibitory activity (IC50) [2]
1 | Nc1ncnc2c1ncn2[C@@H]1O[C@H](C[C@@H](N)CC[C@H](N)C(=O)O)C(O)C1O (stereo in doubt) [Sinefungin, 5′-Deoxy-5′-(1,4-diamino-4-carboxybutyl)adenosine] | inhibits | –
2 | Nc1ncnc2c1ncn2[C@@H]1O[C@H](CO)[C@@H](O)[C@H]1O [adenosine] | – | single digit
3 | CSC[C@H]1O[C@@H](n2cnc3c(N)ncnc32)[C@H](O)[C@@H]1O [MTA, methyl-thioadenosine] | – | single digit
